# Data reported in patent US8871754B2, “Compounds and compositions for the treatment of parasitic diseases” (IRM LLC, priority 2012, dated 2014).
# Where two headings read alike, the source gives them in different places.
# Test system: P. falciparum (NF54 or 3D7 strain) in infected human erythrocytes
# Experiment: Assay for P. falciparum proliferation in infected human blood cells (SYBR Green)
# Assay type: cell-based
# Conditions: Plasmodium falciparum, Erythrocyte, read-out: EC50 (nM), inhibitory efficacy in delaying P. falciparum proliferation in infected human blood cells
# Method: Assay for P. falciparum Proliferation in Infected Human Blood Cells
# Compounds of the invention can be assayed to measure their capacity to inhibit proliferation of P. falciparum parasitemia in infected red blood cells. This parasite proliferation assay measures the increase in parasite DNA content using a DNA intercalating dye, SYBR Green® (INVITROGEN®) which has a high affinity for double stranded DNA.
# NF54 or 3D7 P. falciparum strain is grown in complete culturing media until parasitemia reaches 3% to 8% with O+ human erythrocytes. […] 20 μl of screening media is dispensed into 384 well assay plates. 50 nl of compounds of the invention (in DMSO), including antimalarial controls (mefloquine, pyrimethamine and artemisinin), are then transferred into the assay plates, as well as DMSO alone to serve as a negative control for inhibition. Then 30 μl of a suspension of a NF54 or 3D7 P. falciparum infected erythrocytes in screening media is dispensed into the assay plates such that the final hematocrit is 2.5% with a final parasitemia of 0.3%. The plates are placed in a 37° C. incubator for 72 hours in a low oxygen environment containing 93% N2, 4% CO2, and 3% O2 gas mixture. 10 μl of lysis buffer (saponin, triton-X, EDTA) containing a 10× solution of SYBR Green I® in RPMI media is dispensed into the plates. The plates are lidded and kept at room temperature overnight for the lysis of the infected red blood cells. The fluorescence intensity is measured (excitation […], emission 530 nm) using the Envision™ system (Perkin Elmer). The percentage inhibition of 50%, […], is calculated for each compound.
# [1] = NF54 or 3D7 strain, 72 hours, SYBR Green fluorescence
EC50 [1] [nM],Structure (SMILES),EC50 (72 h) [nM]
342,"CN(Cc1ccn2ncc(-c3ccc(C(F)(F)F)cc3)c2c1)c1ccc(F)cc1 [Example 2, 4-fluoro-N-methyl-N-((3-(4-(trifluoromethyl)phenyl)pyrazolo[1,5-a]pyridine-5-yl)methyl)aniline]",
94,"CN(C(=O)c1ccn2ncc(-c3ccc(C(F)(F)F)cc3)c2c1)c1ccc(Cl)cc1 [Example 3, N-(4-chlorophenyl)-N-methyl-3-(4-(trifluoromethyl)phenyl)pyrazolo[1,5-a]pyridine-5-carboxamide]",
46,"CN(C(=O)c1ccn2ncc(-c3ccc(C(F)(F)F)cc3)c2c1)c1ccc(F)cc1 [Example 4, N-(4-fluorophenyl)-N-methyl-3-(4-(trifluoromethyl)phenyl)pyrazolo[1,5-a]pyridine-5-carboxamide]",
88,"Cc1ccc(N(C)C(=O)c2ccn3ncc(-c4ccc(C(F)(F)F)cc4)c3c2)nc1 [Example 5, N-methyl-N-(5-methylpyridin-2-yl)-3-(4-(trifluoromethyl)phenyl)pyrazolo[1,5-a]pyridine-5-carboxamide]",
284,"CN(Cc1ccn2ncc(-c3ccc(C(F)(F)F)cc3)c2c1)c1ccc(Cl)cc1 [Example 6, 4-chloro-N-methyl-N-((3-(4-(trifluoromethyl)phenyl)pyrazolo[1,5-a]pyridine-5-yl)methyl)aniline]",
975,"Cc1ccc(N(C)Cc2ccn3ncc(-c4ccc(C(F)(F)F)cc4)c3c2)nc1 [Example 7, N,5-dimethyl-N-((3-(4-(trifluoromethyl)phenyl)pyrazolo[1,5-a]101yridine-5-yl)methyl)pyridine-2-amine]",
532,"Fc1ccc(OCc2ccn3ncc(-c4ccc(C(F)(F)F)cc4)c3c2)cc1 [Example 8, 5-((4-fluorophenoxy)methyl)-3-(4-(trifluoromethyl)phenyl)pyrazolo[1,5-a]pyridine]",
6,"COCCN(C(=O)c1ccn2ncc(-c3ccc(C(F)(F)F)cc3)c2c1)c1ccc(C#N)cc1 [Example 9, N-(4-cyanophenyl)-N-(2-methoxyethyl)-3-(4-(trifluoromethyl)phenyl)pyrazolo[1,5-a]pyridine-5-carboxamide]",
7,"CN(C)CCN(C(=O)c1ccn2ncc(-c3ccc(C(F)(F)F)cc3)c2c1)c1ccc(C#N)cc1 [Example 10, N-(4-cyanophenyl)-N-(2-(dimethylamino)ethyl)-3-(4-(trifluoromethyl)phenyl)pyrazolo[1,5-a]pyridine-5-carboxamide]",
6,"N#Cc1ccc(N(CC2CCOCC2)C(=O)c2ccn3ncc(-c4ccc(C(F)(F)F)cc4)c3c2)cc1 [Example 11, N-(4-cyanophenyl)-N-((tetrahydro-2H-pyran-4-yl)methyl)-3-(4-(trifluoromethyl)phenyl)pyrazolo[1,5-a]pyridine-5-carboxamide]",
9,"CS(=O)(=O)c1ccc(N(CC2CCOCC2)C(=O)c2ccn3ncc(-c4ccc(C(F)(F)F)cc4)c3c2)cc1 [Example 12, N-(4-(methylsulfonyl)phenyl)-N-((tetrahydro-2H-pyran-4-yl)methyl)-3-(4-(trifluoromethyl)phenyl)pyrazolo[1,5-a]pyridine-5-carboxamide]",
134,"Cc1cncc(N(C)C(=O)c2ccn3ncc(-c4ccc(C(F)(F)F)cc4)c3c2)c1 [Example 14, N-methyl-N-(5-methylpyridin-3-yl)-3-(4-(trifluoromethyl)phenyl)pyrazolo[1,5-a]pyridine-5-carboxamide]",
2320,"Cc1ccc(OCc2ccn3ncc(-c4ccc(C(F)(F)F)cc4)c3c2)nc1 [Example 15, 5-(((5-methylpyridin-2-yl)oxy)methyl)-3-(4-(trifluoromethyl)phenyl)pyrazolo[1,5-a]pyridine]",
,"Fc1ccc(CCc2ccn3ncc(-c4ccc(C(F)(F)F)cc4)c3c2)cc1 [Example 16, 5-(4-fluorophenethyl)-3-(4-(trifluoromethyl)phenyl)pyrazolo[1,5-a]pyridine]",477
3,"CN(C(=O)c1ccn2ncc(-c3ccc4c(cnn4C)c3)c2c1)c1ccc(C#N)cc1 [Example 17, N-(4-cyanophenyl)-N-methyl-3-(1-methyl-1H-indazol-5-yl)pyrazolo[1,5-a]pyridine-5-carboxamide]",
3,"CC(=O)Nc1ccc(-c2cnn3ccc(C(=O)N(C)c4ccc(C#N)cc4)cc23)cn1 [Example 18, 3-(6-acetamidopyridin-3-yl)-N-(4-cyanophenyl)-N-methylpyrazolo[1,5-a]pyridine-5-carboxamide]",

EC50 [1] [nM],Structure (SMILES),EC50 (72 h) [nM]
472,"Fc1ccc(SCc2ccn3ncc(-c4ccc(C(F)(F)F)cc4)c3c2)cc1 [Example 21, 5-(((4-fluorophenyl)thio)methyl)-3-(4-(trifluoromethyl)phenyl)pyrazolo[1,5-a]pyridine]",
25,"[O-][S+](Cc1ccn2ncc(-c3ccc(C(F)(F)F)cc3)c2c1)c1ccc(F)cc1 (centres unmarked) [Example 22, 5-(((4-fluorophenyl)sulfinyl)methyl)-3-(4-(trifluoromethyl)phenyl)pyrazolo[1,5-a]pyridine]",
2,"CN(C(=O)c1ccn2ncc(-c3ccc(-c4ccn[nH]4)cc3)c2c1)c1ccc(C#N)cc1 [Example 23, 3-(4-(1H-pyrazol-5-yl)phenyl)-N-(4-cyanophenyl)-N-methylpyrazolo[1,5-a]pyridine-5-carboxamide]",
10,"CN(C(=O)c1ccn2ncc(-c3ccc(C(F)(F)F)cn3)c2c1)c1ccc(C#N)cc1 [Example 24, N-(4-cyanophenyl)-N-methyl-3-(5-(trifluoromethyl)109yridine-2-yl)pyrazolo[1,5-a]pyridine-5-carboxamide]",
22,"C[C@H](N)C(=O)Nc1ccc(-c2cnn3ccc(C(=O)N(C)c4ccc(C#N)cc4)cc23)cc1 [Example 26, (S)-3-(4-(2-aminopropanamido)phenyl)-N-(4-cyanophenyl)-N-methylpyrazolo[1,5-a]pyridine-5-carboxamide]",
150,"CN(C(=O)c1ccc(F)cc1)c1ccn2ncc(-c3ccc(C(F)(F)F)cc3)c2c1 [Example 29, 4-fluoro-N-methyl-N-(3-(4-(trifluoromethyl)phenyl)pyrazolo[1,5-a]pyridine-5-yl)benzamide]",
62,"CN(c1ccn2ncc(-c3ccc(C(F)(F)F)cc3)c2c1)S(=O)(=O)c1ccc(C#N)cc1 [Example 30, 4-cyano-N-methyl-N-(3-(4-(trifluoromethyl)phenyl)pyrazolo[1,5-a]pyridine-5-yl)benzenesulfonamide]",
143,"CN(c1ccn2ncc(-c3ccc(C(F)(F)F)cc3)c2c1)S(=O)(=O)c1ccc(F)cc1 [Example 31, 4-fluoro-N-methyl-N-(3-(4-(trifluoromethyl)phenyl)pyrazolo[1,5-a]pyridine-5-yl)benzenesulfonamide]",
59,"CN(C(=O)c1ccn2ncc(-c3ccc(C(F)(F)F)cc3)c2c1)c1ccc(C(F)(F)F)cn1 [Example 33, N-methyl-3-(4-(trifluoromethyl)phenyl)-N-(5-(trifluoromethyl)pyridine-2-yl)pyrazolo[1,5-a]pyridine-5-carboxamide]",
2040,"Fc1ccc(CNc2ccn3ncc(-c4ccc(C(F)(F)F)cc4)c3c2)cc1 [Example 35, N-(4-fluorobenzyl)-3-(4-(trifluoromethyl)phenyl)pyrazolo[1,5-a]pyridine-5-amine]",
390,"CN(Cc1ccc(F)cc1)c1ccn2ncc(-c3ccc(C(F)(F)F)cc3)c2c1 [Example 36, N-(4-fluorobenzyl)-N-methyl-3-(4-(trifluoromethyl)phenyl)pyrazolo[1,5-a]pyridine-5-amine]",
121,"CN(C(=O)c1ccc(C(F)(F)F)nc1)c1ccn2ncc(-c3ccc(C(F)(F)F)cc3)c2c1 [Example 37, N-methyl-6-(trifluoromethyl)-N-(3-(4-(trifluoromethyl)phenyl)pyrazolo[1,5-a]pyridine-5-yl)nicotinamide]",
179,"CN(C(=O)c1ccc(C(F)(F)F)cn1)c1ccn2ncc(-c3ccc(C(F)(F)F)cc3)c2c1 [Example 38, N-methyl-5-(trifluoromethyl)-N-(3-(4-(trifluoromethyl)phenyl)pyrazolo[1,5-a]pyridine-5-yl)picolinamide]",
831,"N#Cc1ccc(C(=O)N(CC2CCOCC2)c2ccn3ncc(-c4ccc(C(F)(F)F)cc4)c3c2)cc1 [Example 39, 4-cyano-N-((tetrahydro-2H-pyran-4-yl)methyl)-N-(3-(4-(trifluoromethyl)phenyl)pyrazolo[1,5-a]pyridin-5-yl)benzamide]",
18,"CN(C(=O)c1ccn2ncc(-c3ccc(N)cc3)c2c1)c1ccc(C#N)cc1 [Example 42, 3-(4-aminophenyl)-N-(4-cyanophenyl)-N-methylpyrazolo[1,5-a]pyridine-5-carboxamide]",
9,"CN(C(=O)c1ccn2ncc(-c3ccc(NC(=O)CN)cc3)c2c1)c1ccc(C#N)cc1 [Example 43, 3-(4-(2-aminoacetamido)phenyl)-N-(4-cyanophenyl)-N-methylpyrazolo[1,5-a]pyridine-5-carboxamide]",
